Consider eleven compounds from patent US4289786A, “Farnesylacetic acid ester derivatives” (Kuraray Co., Ltd., priority 1978, dated 1981).

Data set [1] deals with stress ulcer on the gastric gland. The data set can be described thus: Stress ulcer (water immersion restraint). Type of data set: in vivo, male Donryu rats. The conditions noted are these: 300 mg/kg oral, 10 minutes before immersion; 23° C. water, seven hours; hydrochlorides. As to the method:
Male Donryu rats weighing 240-260 grams were immobilized in wire cages (cf. Japanese Journal of Pharmacology, 18, 9-18 (1968)) and placed under stress by immersing them in water at 23° C. to the level of the breast. Seven hours later, the animals were taken up from the water tank and immediately sacrificed by blowing and the stomach was excised. The stomach was inflated with 1% formalin and then cut open and the ulcer on the gastric gland were measured for length in mm. The total ulcer length per animal was designated as the ulcer index. In the above-mentioned test, the compounds (hydrochlorides) (test compounds (1) and (4)) prepared by the procedure of Examples 1 and 2, respectively and geranyl farnesylacetate were administered orally to the rats 10 minutes before the immersion. In the Table, the prevention ratio has the same meaning as defined for the indomethacin-induced ulcer in Example 16.

The subject of data set [2] is indomethacin-induced ulcers on the gastric mucosa. Kind of data set: Indomethacin-induced ulcer (antiulcerogenic activity). The note with it: Rattus norvegicus, 7 h; indomethacin 15 mg/kg s.c.; test compound 300 mg/kg oral, 10 minutes prior; hydrochlorides except one quaternary ammonium salt; read-out: Prevention ratio. Type of data set: in vivo, male Donryu rats. As to the method: After fasting for 24 hours, male Donryu rats weighing 210 to 230 grams were administered subcutaneously with indomethacin suspended in 1% aqueous solution of carboxymethylcellulose at a dosage level of 15 mg/kg. Seven hours later, the animals were sacrificed by ether inhalation. The rat stomach was cut open and the indomethacin-induced ulcers appearing on the gastric mucosa were measured for their length in mm. The total length of ulcers per animal was designated as the ulcer index. The farnesylacetic acid ester derivatives (test compounds) prepared by any of the synthetic procedures described above and geranyl farnesylacetate as a control were orally administered 10 minutes prior to the indomethacin administration. The antiulcerogenic activity was evaluated in terms of the prevention ratio, i.e. the quotient of the difference in ulcer index between the test compound group and the control group divided by the ulcer index for the control group. The numbers in the test compound column are those previously assigned to the exemplary compounds of the present invention each represented by a structural formula, and the example numbers are the numbers of examples wherein preparation of the corresponding compounds is described. The test compounds were all hydrochlorides except for one quaternary ammonium salt.

A short description of data set [3]: Acute toxicity--1 (oral, rats). It counts as in vivo. The note with it: rat, in vivo, Wistar rats, observation 2 weeks, hydrochlorides. As to the method: (§1) Wistar rats, five weeks of age, were fed previously for one week and then subjected to the test. All the test compounds were administered orally. The observation period was 2 weeks. The test compounds (4), (1) and (16) used were the products prepared in the above Examples 2, 1 and 8, respectively, and were all in the form of hydrochlorides.

For the next data set, the system named is Wistar rats. Kind of data set: Acute toxicity--1 (oral, rats). It counts as in vivo. The note with it: rats. As to the method: as §1
The test system of another data set is ddY mice. The data set can be described thus: Acute toxicity--2 (oral, mice). Type of data set: in vivo. The note with it: mice. As to the method:
(§2) Five-week-old ddY mice were fed previously for one week and then subjected to the test. All the test compounds were administered orally and the observation period was one week. The test compounds (23), (7) and (13) used were the products of the above Example 5, 10 and 4, respectively and were all in the form of hydrochlorides (the product of Example 10 was converted into the hydrochloride by a conventional method).

Data set [4] is described as follows: Acute toxicity--2 (oral, mice). It counts as in vivo. The conditions noted are these: mouse, in vivo, ddY mice, observation one week, hydrochlorides. As to the method: as §2
Data set [5] can be described thus: Aqueous solution of hydrochloride. Type of data set: physicochemical. The conditions noted are these: in water. The method, then: Using the lower alkyl esters of farnesylacetic acids shown in Table 1 and the amino alcohols also shown in Table 1, ester exchange reaction was carried out by the procedure of Example 1, to prepare a variety of amine-nitrogen-containing farnesylacetic acid esters and hydrochlorides thereof. In the chemical formula appearing in the table, P stands for a prenyl group, G a geranyl group and F a farnesyl group.

The next data set has as its system mice. The note with it: cited from earlier work.
The test system of another data set is ulcers. The note with it: known compounds, prior art; cited from earlier work.
The next data set has as its system rats. The conditions noted are these: cited from earlier work.

Turning to `CCN(CC)CCOC(=O)CCC=C(C)CCC=C(C)CCC=C(C)C` [(1), 2-diethylaminoethyl farnesylacetate], the Prevention ratio in data set [1] came out at 42.1%. Besides, in [2], the inhibition in vivo at 300 mg/kg worked out at 64.1%. The LD50 at 336 h in data set [3] was > 5400 mg/kg. The “Number of dead animals/number of animals used” value in the data set on Wistar rats (dose 4.1 g/kg) and in the data set with Wistar rats (dose 5.4 g/kg) was 0/5 each time.

As for `CC[N+](CC)(CC)CCOC(=O)CCC=C(C)CCC=C(C)CCC=C(C)C` [(2), farnesylacetoxyethyltriethylammonium bromide], the inhibition in vivo at 300 mg/kg in data set [2] came to 68.8%.

Regarding `CC(C)=CCCC(C)=CCCC(C)=CCCC(=O)OCCCN(C)C` [(4), 3-Dimethylaminopropyl farnesylacetate], in data set [1], the Prevention ratio is recorded as 40.1%. For the same compound, the inhibition in vivo at 300 mg/kg in data set [2] was 65.8%. For the same compound, in data set [3], the LD50 at 336 h was > 4000 mg/kg. Further, the “Number of dead animals/number of animals used” value in the data set with Wistar rats (dose 3 g/kg) and with Wistar rats (dose 4 g/kg) was 0/5 in each case.

Take `CC(C)=CCCC(C)=CCCC(C)=CCCC(=O)OC(C)(C)CN(C)C` [(7), 1,1-dimethyl-2-dimethylaminoethyl farnesylacetate]: in data set [2], the inhibition in vivo at 300 mg/kg was 91.7%. Further, the “Number of dead animals/number of animals used” value is recorded as 0/4 in the data set on ddY mice (dose 6 g/kg), 1/3 with ddY mice (dose 8 g/kg) and 3/3 in the data set with ddY mice (dose 10 g/kg). In data set [4], this compound returned an LD50 at 168 h of 8400 mg/kg.

`CC(C)=CCCC(C)=CCCC(C)=CCCC(=O)OCCN(CC=C(C)CCC=C(C)C)CC=C(C)CCC=C(C)C` [(13)]: the “Appearance of aqueous solution of hydrochloride (water solubility)” value in data set [5] is recorded as “Insoluble”. Also, the inhibition in vivo at 300 mg/kg in data set [2] was determined as 81.3%. The “Number of dead animals/number of animals used” value with ddY mice (dose 1 g/kg) is 0/3; in the data set on ddY mice (dose 2 g/kg), 1/3; in the data set with ddY mice (dose 6 g/kg), 2/3; in the data set on ddY mice (dose 10 g/kg), 2/3; in the data set with ddY mice (dose 20 g/kg) it was 3/3. Also, the LD50 at 168 h in data set [4] is 7000 mg/kg.

For the compound `CCN(CCOC(=O)CCC=C(C)CCC=C(C)CCC=C(C)C)c1ccccc1` [(14)], in data set [5], the “Appearance of aqueous solution of hydrochloride (water solubility)” value was “Insoluble”. Besides, the inhibition in vivo at 300 mg/kg in data set [2] is 70.2%.

For `CC(C)=CCCC(C)=CCCC(C)=CCC(Cc1ccccc1)C(=O)OCCN(C)C` (stereo not shown) [(16)], the inhibition in vivo at 300 mg/kg in [2] is 84.5%. The LD50 at 336 h in data set [3] is > 15000 mg/kg. The “Number of dead animals/number of animals used” value in the data set on Wistar rats (dose 5 g/kg) is on record as 0/5; in the data set on Wistar rats (dose 10 g/kg), 1/5; with Wistar rats (dose 15 g/kg), 1/5.

In the case of `CC(C)=CCCC(C)=CCCC(C)=CCCC(=O)OCCN1CCN(CCO)CC1` [(23)], the inhibition in vivo at 300 mg/kg in data set [2] was found to be 93.2%. Also, the “Number of dead animals/number of animals used” value in the data set with ddY mice (dose 1.3 g/kg) is 0/3; in the data set on ddY mice (dose 4.0 g/kg) it was 2/4; in the data set on ddY mice (dose 6.6 g/kg), 3/3. In addition, in data set [4], the LD50 at 168 h was determined as 4000 mg/kg.

Take `CCN1CCC(OC(=O)CCC=C(C)CCC=C(C)CCC=C(C)C)CC1` [(24), N-ethyl-4-farnesylacetoxy-piperidine]: the inhibition in vivo at 300 mg/kg in [2] came to 76.6%.

Regarding `CC(C)=CCCC(C)=CCCC(C)=CCCC(=O)OCC1CCCCN1C` (stereo not shown) [(26)], in [2], the inhibition in vivo at 300 mg/kg was found to be 47.9%.

On to `CC(C)=CCCC(C)=CCCC(C)=CCCC(=O)OCC=C(C)CCC=C(C)C` [Geranyl farnesylacetate, 3,7-dimethyl-2,6-octadienyl 5,9,13-trimethyl-4,8,12-tetradecatrienoate], for which, in [1], the Prevention ratio turned out to be 32.0%. In addition, the inhibition in vivo at 300 mg/kg in [2] stood at 6.1%. In addition, the LD50 entry in the data set on mice and with rats was “more than 8 g/kg” in each case. Further, the “antiulcer / antiulcerogenic activity (in words)” value in the data set with ulcers was “high antiulcerogenic activity”.

Usually LD50 stands for the dose expected to kill half of the subjects tested.
